# System: HepG2
# Test: Induction of apoptosis in human HepG2 cells assessed as apoptotic cells at 50 uM by Annexin V-FITC/propidium iodide staining based flow cytometry relative to control
# Format: functional
row,Structure (SMILES),Activity
1,C[C@H]1/C=C/C[C@H](Br)[C@@H]2C[C@@H](Cl)[C@@H](C[C@H](C=C=CBr)O1)O2,47%
2,C[C@@H]1O[C@@H](C=C=CBr)C[C@H]2O[C@@H](C[C@H]2Cl)[C@@H](Br)C[C@H]2O[C@H]12,>65%
3,C[C@@H]1O[C@@H](C=C=CBr)C[C@H]2O[C@@H](C[C@H]2Cl)[C@@H](Br)C[C@@H]2O[C@@H]12,>70%

# From ChEMBL document CHEMBL4477173, “Additional Insights into the Obtusallene Family: Components of Laurencia marilzae” (2016)
